Experimental data published in patent US7217833B2, “Carboxylic acid compounds for use as surfactants” (Glaxco Group Limited, priority 2002, dated 2007).

What was measured:
Format in all cases: physicochemical
[1] = Andersen Cascade Impaction of salmeterol xinafoate HFA 134a formulation; settings: Initial timepoint, beginning of use, mean of 3 cans/inhalers, 10% w/w surfactant
Experimental: (§1) Salmeterol xinafoate formulations in HFA 134a, of strength 25 μg per actuation, and 10% w/w (relative to drug) of the relevant surfactant compound of formula (I) were prepared in crimped glass bottles using salmeterol xinafoate (8.7 mg), HFA 134a (18 g) and the relevant compound (0.87 mg). The control was prepared without the addition of a surfactant.
The formulation, the preparation of which is described above, was profiled using an Andersen Cascade Impactor. Ten actuations at “beginning of use” (BoU) were collected in the impactor from an inhaler after 4 priming actuations were fired to waste. The drug delivered was then quantified by HPLC analysis. Testing was performed at the initial timepoint (following sample preparation). The results, in Table 2 are shown as the mean analysis of 3 cans/inhalers.
The profile obtained was used to determine total dose emitted dose (ex-valve and ex-actuator) and the fine particle mass (FPM, defined as the sum of stages 3–5). The percentage fine particle mass expresses the FPM as a percentage of the total dose emitted (ex-valve). The FPM is used as a measure of the proportion of the drug likely to reach the therapeutic target in the lungs.

[2] = Content uniformity by dose through use testing; settings: Initial timepoint, 10% w/w surfactant
Experimental: as §1
The content uniformity of the formulation, the preparation of which is described above, was assessed by dose through use testing. Testing was performed on 10 cans/inhalers at “beginning of use” (BoU) and “end of use” (EoU). After each inhaler had been primed (4 shots fired to waste), actuations 1 and 2 (BoU) were collected. The next 116 actuations of each inhaler were then fired to waste using an automated method and actuations 119 and 120 (EoU) collected.
Assessment of content uniformity was performed at the initial timepoint (following sample preparation). Mean results from the two BoU actuations (1+2 for 10 inhalers) and the two EoU actuations (119+120 for same 10 inhalers) together with the percentage relative standard deviation (% RSD) for the 10 cans are shown in Table 3. […] The presence of the surfactant therefore improves the content uniformity of the inhaler. Furthermore the formulations containing the compound of Example 1, advantageously, show a reduction in the relative standard deviation at the BoU and EoU.

[3] = Particle size by image analysis (Galai CIS-100) of salmeterol xinafoate suspension in HFA 134a
Experimental: as §1
In this measurement, particle size is represented as the equivalent diameter of a circle of equal area to the object. The mean is the average of 4 determinations. The particle size measurement was obtained by transferring the suspensions to a pressurised cell, and video-imaging the sample under shear via a microscope objective.
The equivalent diameter is defined as the diameter of a circle of equal area to the object.
The mean equivalent diameter can be weighted by number, length or volume. e.g. For three particles with equivalent diameters of x, y and z: […]

O=C(CCC(F)(F)C(F)(F)F)OCC(OC(=O)CCC(F)(F)C(F)(F)F)C(=O)O (centres unmarked) [Example 1, 2,3-Bis[(4,4,5,5,5-pentafluoronentanoyl)oxy]propanoic acid]
Total Dose Emitted (Ex-Actuator) ([1]; 10 actuations): 21.1 µg | Total Dose Emitted (Ex-Valve) ([1]; 10 actuations): 23.9 µg | % FPM (FPM as percentage of total dose emitted ex-valve) [1]: 50.3% | FPM (fine particle mass, sum of stages 3–5) [1]: 12.0 µg | BoU dose ([2]; actuations 1+2, mean of 10 inhalers): 21.2 µg | EoU dose ([2]; actuations 119+120, mean of 10 inhalers): 25.1 µg | Mean Length weighted diameter ([3]; salmeterol xinafoate 25 μg per actuation in HFA 134a with 10% w/w (relative to drug) surfactant, mean of 4 determinations): 21.5 μm | suspension stabilising properties (flocculation of drug particles) ([3]; salmeterol xinafoate formulation in HFA 134a with 10% w/w surfactant): has suspension stabilising properties
